Test results: publication PMC12507958, “Modification of human metallothioneins by garlic organosulfur compounds, allicin and ajoene: direct effect on zinc homeostasis with relevance to immune regulation” (Biometals, 2025)

Assays:
Format in all cases: binding
[1] = molecular target: T1, MT2 (Homo sapiens, UniProt P02795); assay: Zn(II) release followed with PAR; adducts by ESI-MS and top-down MS; details: 1 uM Zn(II)-loaded MT2, 80 uM ajoene, 100 uM PAR, 50 mM HEPES, 100 mM NaCl, pH 7.4, 25 °C; covalent (Cys within residues 29-53)
T1 construct: gene MT2A; full-length recombinant, intein/chitin tag (pTYB21) cleaved by DTT, from E. coli BL21(DE3)pLysS; Zn7-loaded (Zn7MT2)
T1 sequence (P02795 whole entry, the tested form may be a part): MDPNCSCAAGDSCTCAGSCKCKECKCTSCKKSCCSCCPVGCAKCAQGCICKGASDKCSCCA

[2] = molecular target: T2, MT3 (Homo sapiens, UniProt P25713); assay: Zn(II) release followed with PAR at […] nm; details: 1 uM Zn(II)-loaded MT, 80 uM allicin, 200 uM PAR, 50 mM HEPES, 100 mM NaCl, pH 7.4, 25 °C; covalent (Cys S-thioallylation)
T2 construct: full-length recombinant, intein/chitin tag (pTYB21) cleaved by DTT, from E. coli BL21(DE3)pLysS; Zn7-loaded
T2 sequence (P25713 whole entry): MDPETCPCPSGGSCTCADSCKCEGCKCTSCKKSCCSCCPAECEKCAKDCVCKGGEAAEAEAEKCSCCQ

[3] = molecular target: T3, MT1a (Homo sapiens, UniProt P04731); assay: Zn(II) release followed with PAR at […] nm; details: 1 uM Zn(II)-loaded MT, 80 uM allicin, 200 uM PAR, 50 mM HEPES, 100 mM NaCl, pH 7.4, 25 °C; covalent (Cys S-thioallylation)
T3 construct: full-length recombinant, intein/chitin tag (pTYB21) cleaved by DTT, from E. coli BL21(DE3)pLysS; Zn7-loaded
T3 sequence (P04731 whole entry): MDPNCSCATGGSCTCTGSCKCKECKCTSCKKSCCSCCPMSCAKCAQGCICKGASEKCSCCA

[4] = molecular target: T4, MT4 (Homo sapiens, UniProt P47944); assay: Zn(II) release followed with PAR at […] nm; details: 1 uM Zn(II)-loaded MT, 80 uM allicin, 200 uM PAR, 50 mM HEPES, 100 mM NaCl, pH 7.4, 25 °C; covalent (Cys S-thioallylation)
T4 construct: full-length recombinant, intein/chitin tag (pTYB21) cleaved by DTT, from E. coli BL21(DE3)pLysS; Zn7-loaded
T4 sequence (P47944 whole entry): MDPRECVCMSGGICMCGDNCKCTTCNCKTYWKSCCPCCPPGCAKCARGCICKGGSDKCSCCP

[5] = molecular target: T1, MT2; assay: Zn(II) release followed with PAR; adducts by ESI-MS and top-down MS; details: 1 uM Zn(II)-loaded MT2, 80 uM allicin, 100 uM PAR, 50 mM HEPES, 100 mM NaCl, pH 7.4; covalent (S-thioallylation, Cys within residues 19-30)

SMILES | Zn(II) mol. eq. dissociated after 60 min [1] | Zn(II) mol. eq. dissociated after 60 min [2] [mol. eq.] | Zn(II) mol. eq. dissociated after 60 min [3] [mol. eq.] | Zn(II) mol. eq. dissociated after 60 min [4] [mol. eq.] | Zn(II) mol. eq. dissociated after 1 h [5] [mol. eq.]
C=CCSSC=CC[S+]([O-])CC=C (centres unmarked) [ajoene] | almost 6 | – | – | – | –
C=CCS[S+]([O-])CC=C (centres unmarked) [allicin] | – | 5.2 | 5 | 2.8 | 5.3
